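Grown in 96-well plates, cells were treated for 48 hours with each compound at five concentrations. Insufficient inhibition: endpoint recorded as highest concentration tested. GI50: concentration for 50% inhibition of growth.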 Activity calls are given as the source filed them. No stated cut-off is given here; in the data, active = GI50 up to about 1.1 µM and inactive = higher.
Legend:
Test in all cases: DTP human tumour cell line panel, 48 h
CCRF-CEM = test system: CCRF-CEM
OVCAR-8 = test system: OVCAR-8
HT-29 = test system: HT-29
XF498 = test system: XF498
DLD-1 = test system: DLD-1
RPMI-8226 = test system: RPMI-8226
COLO 205 = test system: COLO 205
HCC 2998 = test system: HCC 2998
SN12C = test system: SN12C
SF-295 = test system: SF-295
NCI-H226 = test system: NCI-H226
U-251 = test system: U-251
NCI-H460 = test system: NCI-H460
UO-31 = test system: UO-31
786-0 = test system: 786-0
MOLT-4 = test system: MOLT-4
SNB-19 = test system: SNB-19
SK-MEL-2 = test system: SK-MEL-2
Malme-3M = test system: Malme-3M
DMS-273 = test system: DMS-273
HCT-116 = test system: HCT-116
IGROV-1 = test system: IGROV-1
SF-539 = test system: SF-539
SF-268 = test system: SF-268
HL-60 = test system: HL-60
NCI-H23 = test system: NCI-H23
SK-OV-3 = test system: SK-OV-3
OVCAR-3 = test system: OVCAR-3
HCT-15 = test system: HCT-15
LOX IMVI = test system: LOX IMVI
OVCAR-4 = test system: OVCAR-4
M19-MEL = test system: M19-MEL
M14 = test system: M14
NCI-H522 = test system: NCI-H522
HOP-92 = test system: HOP-92
UACC-257 = test system: UACC-257
SW-620 = test system: SW-620
DMS-114 = test system: DMS-114
KM-20L2 = test system: KM-20L2
EKVX = test system: EKVX
A549 = test system: A549
KM12 = test system: KM12
CAKI-1 = test system: CAKI-1
OVCAR-5 = test system: OVCAR-5
HOP-18 = test system: HOP-18
UACC-62 = test system: UACC-62
A498 = test system: A498
LXFL 529 = test system: LXFL 529
TK-10 = test system: TK-10
ACHN = test system: ACHN
K562 = test system: K562
RXF 393 = test system: RXF 393
SK-MEL-28 = test system: SK-MEL-28
SNB-75 = test system: SNB-75
SR = test system: SR
HOP-62 = test system: HOP-62
SK-MEL-5 = test system: SK-MEL-5
SNB-78 = test system: SNB-78

O=C(CCC(=O)Nc1ccc(Cl)c(Cl)c1)CC(=O)c1ccc(Cl)cc1
GI50 (CCRF-CEM): > 100 µM (inactive) | GI50 (OVCAR-8): > 100 µM (inactive) | GI50 (HT-29): > 100 µM (inactive) | GI50 (XF498): > 100 µM (inactive) | GI50 (DLD-1): > 100 µM (inactive) | GI50 (RPMI-8226): > 100 µM (inactive) | GI50 (COLO 205): > 100 µM (inactive) | GI50 (HCC 2998): > 100 µM (inactive) | GI50 (SN12C): > 100 µM (inactive) | GI50 (SF-295): > 100 µM (inactive) | GI50 (NCI-H226): > 100 µM (inactive) | GI50 (U-251): > 100 µM (inactive) | GI50 (NCI-H460): > 100 µM (inactive) | GI50 (UO-31): > 100 µM (inactive) | GI50 (786-0): > 100 µM (inactive) | GI50 (MOLT-4): > 100 µM (inactive) | GI50 (SNB-19): > 100 µM (inactive) | GI50 (SK-MEL-2): > 100 µM (inactive) | GI50 (Malme-3M): > 100 µM (inactive) | GI50 (DMS-273): > 100 µM (inactive) | GI50 (HCT-116): > 100 µM (inactive) | GI50 (IGROV-1): > 100 µM (inactive) | GI50 (SF-539): > 100 µM (inactive) | GI50 (SF-268): > 100 µM (inactive) | GI50 (HL-60): > 100 µM (inactive) | GI50 (NCI-H23): > 100 µM (inactive) | GI50 (SK-OV-3): > 100 µM (inactive) | GI50 (OVCAR-3): > 100 µM (inactive) | GI50 (HCT-15): > 100 µM | GI50 (LOX IMVI): > 100 µM (inactive) | GI50 (OVCAR-4): > 100 µM (inactive) | GI50 (M19-MEL): > 100 µM (inactive) | GI50 (M14): > 100 µM (inactive) | GI50 (NCI-H522): > 100 µM (inactive) | GI50 (HOP-92): 24.8 µM (inactive) | GI50 (UACC-257): > 100 µM (inactive) | GI50 (SW-620): > 100 µM (inactive) | GI50 (DMS-114): > 100 µM (inactive) | GI50 (KM-20L2): > 100 µM (inactive) | GI50 (EKVX): > 100 µM (inactive) | GI50 (A549): > 100 µM (inactive) | GI50 (KM12): > 100 µM (inactive) | GI50 (CAKI-1): > 100 µM (inactive) | GI50 (OVCAR-5): > 100 µM (inactive) | GI50 (HOP-18): 80.7 µM (inactive) | GI50 (UACC-62): 47.8 µM (inactive) | GI50 (A498): > 100 µM (inactive) | GI50 (LXFL 529): 83.9 µM (inactive) | GI50 (TK-10): > 100 µM (inactive) | GI50 (ACHN): > 100 µM (inactive) | GI50 (K562): > 100 µM (inactive)

Cc1cc2oc(=O)[nH]c(=S)c2c(C)c1C
GI50 (CCRF-CEM): > 100 µM (inactive) | GI50 (OVCAR-8): > 100 µM (inactive) | GI50 (HT-29): > 100 µM (inactive) | GI50 (XF498): > 100 µM (inactive) | GI50 (RXF 393): > 100 µM (inactive) | GI50 (RPMI-8226): > 100 µM (inactive) | GI50 (COLO 205): > 100 µM (inactive) | GI50 (SK-MEL-28): > 100 µM (inactive) | GI50 (HCC 2998): > 100 µM (inactive) | GI50 (SN12C): > 100 µM (inactive) | GI50 (SF-295): > 100 µM (inactive) | GI50 (NCI-H226): > 100 µM (inactive) | GI50 (U-251): > 100 µM (inactive) | GI50 (NCI-H460): > 100 µM (inactive) | GI50 (UO-31): > 100 µM (inactive) | GI50 (786-0): > 100 µM (inactive) | GI50 (MOLT-4): > 100 µM (inactive) | GI50 (SNB-19): > 100 µM (inactive) | GI50 (SK-MEL-2): > 100 µM (inactive) | GI50 (Malme-3M): > 100 µM (inactive) | GI50 (DMS-273): > 100 µM (inactive) | GI50 (HCT-116): > 100 µM (inactive) | GI50 (IGROV-1): > 100 µM (inactive) | GI50 (SF-539): > 100 µM (inactive) | GI50 (SF-268): > 100 µM (inactive) | GI50 (HL-60): > 100 µM (inactive) | GI50 (NCI-H23): > 100 µM (inactive) | GI50 (SK-OV-3): > 100 µM (inactive) | GI50 (OVCAR-3): > 100 µM (inactive) | GI50 (HCT-15): > 100 µM | GI50 (LOX IMVI): > 100 µM (inactive) | GI50 (OVCAR-4): 45.2 µM (inactive) | GI50 (M19-MEL): > 100 µM (inactive) | GI50 (M14): > 100 µM (inactive) | GI50 (NCI-H522): > 100 µM (inactive) | GI50 (SNB-75): > 100 µM (inactive) | GI50 (HOP-92): > 100 µM (inactive) | GI50 (UACC-257): > 100 µM (inactive) | GI50 (SW-620): > 100 µM (inactive) | GI50 (SR): > 100 µM (inactive) | GI50 (DMS-114): > 100 µM (inactive) | GI50 (KM-20L2): > 100 µM (inactive) | GI50 (EKVX): 48.2 µM (inactive) | GI50 (A549): > 100 µM (inactive) | GI50 (KM12): > 100 µM (inactive) | GI50 (HOP-18): > 100 µM (inactive) | GI50 (UACC-62): > 100 µM (inactive) | GI50 (HOP-62): > 100 µM (inactive) | GI50 (A498): > 100 µM (inactive) | GI50 (LXFL 529): > 100 µM (inactive) | GI50 (TK-10): > 100 µM (inactive) | GI50 (ACHN): > 100 µM (inactive) | GI50 (K562): > 100 µM (inactive)

COc1ccc(C2C(Cl)C(=O)N2NC(=O)Cc2ccccc2)cc1OC (stereo not drawn)
GI50 (CCRF-CEM): > 100 µM (inactive) | GI50 (OVCAR-8): > 100 µM (inactive) | GI50 (HT-29): > 100 µM (inactive) | GI50 (XF498): > 100 µM (inactive) | GI50 (DLD-1): > 100 µM (inactive) | GI50 (RXF 393): > 100 µM (inactive) | GI50 (RPMI-8226): > 100 µM (inactive) | GI50 (COLO 205): > 100 µM (inactive) | GI50 (SK-MEL-5): > 100 µM (inactive) | GI50 (SK-MEL-28): > 100 µM (inactive) | GI50 (HCC 2998): > 100 µM (inactive) | GI50 (SN12C): > 100 µM (inactive) | GI50 (SF-295): > 100 µM (inactive) | GI50 (NCI-H226): > 100 µM (inactive) | GI50 (U-251): > 100 µM (inactive) | GI50 (NCI-H460): > 100 µM (inactive) | GI50 (UO-31): > 100 µM (inactive) | GI50 (786-0): > 100 µM (inactive) | GI50 (MOLT-4): > 100 µM (inactive) | GI50 (SNB-19): > 100 µM (inactive) | GI50 (SK-MEL-2): > 100 µM (inactive) | GI50 (Malme-3M): > 100 µM (inactive) | GI50 (DMS-273): > 100 µM (inactive) | GI50 (HCT-116): > 100 µM (inactive) | GI50 (IGROV-1): > 100 µM (inactive) | GI50 (SF-268): > 100 µM (inactive) | GI50 (HL-60): > 100 µM (inactive) | GI50 (SNB-78): > 100 µM (inactive) | GI50 (NCI-H23): > 100 µM (inactive) | GI50 (SK-OV-3): > 100 µM (inactive) | GI50 (OVCAR-3): > 100 µM (inactive) | GI50 (HCT-15): > 100 µM | GI50 (LOX IMVI): > 100 µM (inactive) | GI50 (OVCAR-4): > 100 µM (inactive) | GI50 (M19-MEL): > 100 µM (inactive) | GI50 (M14): > 100 µM (inactive) | GI50 (NCI-H522): > 100 µM (inactive) | GI50 (SNB-75): > 100 µM (inactive) | GI50 (UACC-257): > 100 µM (inactive) | GI50 (SW-620): > 100 µM (inactive) | GI50 (SR): > 100 µM (inactive) | GI50 (DMS-114): > 100 µM (inactive) | GI50 (KM-20L2): > 100 µM (inactive) | GI50 (EKVX): > 100 µM (inactive) | GI50 (A549): > 100 µM (inactive) | GI50 (KM12): > 100 µM (inactive) | GI50 (CAKI-1): > 100 µM (inactive) | GI50 (OVCAR-5): > 100 µM (inactive) | GI50 (HOP-18): > 100 µM (inactive) | GI50 (UACC-62): > 100 µM (inactive) | GI50 (HOP-62): > 100 µM (inactive) | GI50 (TK-10): > 100 µM (inactive) | GI50 (ACHN): > 100 µM (inactive) | GI50 (K562): > 100 µM (inactive)
